Laboratory results taken from patent publication US20180214400A1, “THE USE OF KAURANES COMPOUNDS IN THE MANUFACTURE OF MEDICAMENT FOR TREATMENT OF CADIAC HYPERTROPY AND PULMONARY HYPERTENSION” (KEY-PHARMA BIOMEDICAL INC., priority 2015, published 2018).

Key:
[1] = tested on: Diabetic cardiomyopathy (DCM) rats; test: Streptozotocin-induced diabetic cardiomyopathy; type: in vivo, Wistar rats; settings: STZ diabetes, 12-16 weeks
Method: Diabetic cardiomyopathy (DCM) Diabetic induced injury to the myocardium. DCM, induced by streptozotocin (STZ), along with the associated changes occurring in inflammation, oxidative stress and fibrosis markers. Wistar rats were randomly divided into four groups: group A (Normal control), group B (Diabetes), group […] group D (DM/TMZ, trimetazidine treatment). After 12-16 weeks, left ventricular function was measured by the pressure-volume system. Cardiac tissues were prepared for histological study by hematoxlyin and eosin, Sirius red staining as well as for assays of oxidative stress. Oxidative stress, inflammation, and fibrosis markers were evaluated by molecular biological techniques. All data were measured morphometrically and statistically analyzed.

[2] = tested on: TAC rats; test: Left ventricular pressure-volume relationship in TAC rats; type: in vivo; settings: 3 or 9 weeks
Method: The left ventricular pressure and volume were measured simultaneously. Tow parameters can be derived by studying of the relationship of pressure-volume during changes of either preload or afterload. ESPVR, the slope of end-systolic pressure-volume relationships which represent end-systolic elastics; EDPVR, the slope of end-diastolic pressure-volume relationship which, represents cardiac stiffness. In hypertrophy hearts after 3 or 9 weeks TAC, the cardiac pump dysfunction was manifested by a significant decreased ESPVR and increased in EDPVR. […] Therefore, compound A are useful to preserve a normal elasticity during contraction and reduce diastolic stiffness of hearts with high pressure load as in TAC rats.
Heart hemodynamic Analysis was conducted by pressure-volume (PV) catheter. Rats were anesthetized and placed on a warming pad (37° C.). Underwent tracheostomy, rats were then ventilated by using a positive pressure with a tidal volume of 4-6 ml/200 g at 70 breaths/min using room air. […] After stabilization of the signal for 10-15 min, baseline PV loops were recorded at a steady state. […] After data were recorded under steady-state conditions and during preload reduction, parallel conductance values were obtained by the injection of 40 μl hypertonic saline (30%) into the right jugular vein. […] Data were recorded on separate channels of the PowerLab system. […]

[3] = tested on: neonatal rat cardiac fibroblasts; test: TGF-β induced proliferation of cardiac fibroblasts (MTT); type: cell-based; settings: cultured neonatal rat cardiac fibroblasts
Source text: This invention disclosed that compound A can prevent TGF-β induced proliferation in cultured neonatal rat cardiac fibroblasts. Furthermore, this invention disclosed that there were a significant increase in cGMP levels in compound A treated cardiac fibroblasts which is related to its anti-hypertrophy and anti-fibrosis roles.
Neonatal rat cardiac fibroblasts were isolated from 1-2-day-old Sprague-Dawley rats as described previously. Briefly, hearts from newborn 1-2-day-old Sprague-Dawley rats were minced on ice, and cells were isolated by trypsin incubation at 37° C. Non-cardiomyocytes were separated from the cardiomyocytes by differential pre-plating, and then cardiomyocytes were removed with fibroblasts seeded in culture dishes. The cells were passaged after 3 days, using a 0.05% trypsin solution. Cells were cultured in DEME/F12 medium with 5% fetal calf serum, and maintained at 37° C., 5% CO2 condition.
Viability of cardiac fibroblast in culture was assessed using the 3-(4,5-dimethylthiazol-2-yl)-2,5-diphenyltetrazolium bromide (MTT) method. The assay measures the ability of an active mitochondrial enzyme to reduce the MTT substrate (yellow to blue) in live cells. Isolated primary cardiac fibroblasts were plated in serum-free conditions on 96-well plates. […] Absorbance was measured at 460 nm.

[4] = tested on: ROS (reactive oxygen species); test: ROS in cytosol and mitochondria of cardiomyocytes; type: cell-based; settings: cardiomyocytes hypertrophy
Source text: In this invention, we disclosed that compound A could suppress cardiomyocytes hypertrophy by reducing ROS (reactive oxygen species) in either cytosol and mitochondria in addition to the inhibition of PED, while classic PED inhibitor such as sildenafil has no such effects been reported in prior arts. This explains the superiority of compound A over sildenafil in suppressing hypertrophy and other diseases. This invention disclosed a new use of compound A as PED inhibitor with novel mechanism which is different than what been disclosed in prior art.

[5] = tested on: dogs; test: Penile erection in male dogs; type: in vivo; settings: relative higher dose
[6] = tested on: mitochondrial KATP channel; test: Mitochondrial KATP channel effect
Source text: This invention disclosed exclusively that compound A per se had no effect on either sarcolemma or mitochondrial KATP channel. Instead, compound A is acting only as a sensitizer which render the KATP channel response greater to known KATP channel openers, such as pinacidil and to change of ATP.

[7] = tested on: cerebral ischemia/reperfusion (I/R) injury; settings: within 24 hours; cited from earlier work
[8] = tested on: mice exposed to chronic transverse aortic constriction; settings: cited from earlier work

| Compound | cardiac hypertrophy [1] | deteriorations in ESPVR and EDPVR [2] | TGF-β induced proliferation [3] | ROS in cytosol and mitochondria [4] | penile erection [5] | effect on mitochondrial KATP channel per se [6] | protection against cerebral I/R injury [7] | chamber and cardiomyocytes hypertrophy [8] |
| --- | --- | --- | --- | --- | --- | --- | --- | --- |
| C[C@@]12CC[C@@H]3[C@@](CC[C@H]4[C@@]3(C)CCC[C@@]4(C)C(=O)O)(CC1=O)C2 [Compound A, (4α,8β,13β)-13-methyl-16-oxo-17-norkauran-18-oic acid] | significant inhibited | prevented the deteriorations | prevent | reducing | long lasting penile erection | had no effect | protect | – |
| CCCc1nn(C)c2c(=O)[nH]c(-c3cc(S(=O)(=O)N4CCN(C)CC4)ccc3OCC)nc12 [sildenafil, reference compound] | – | – | – | – | – | – | – | suppresses |
